Test results: US20170283885A1, “ALGORITHMS FOR GENE SIGNATURE-BASED PREDICTOR OF SENSITIVITY TO MDM2 INHIBITORS” (DAIICHI SANKYO COMPANY, LIMITED, priority 2014, published 2017)

Tested on: multi-cancer cell line panel
Assay: OncoPanel cytotoxicity assay, whole panel summary
Format: cell-based, human
Experimental: This Example describes an evaluation of the effect of a representative small molecule MDM2i on the growth of cells in a multi-cancer cell line panel. In this Example, the MDM2 inhibitors used were Compound A and Compound B p-toluenensulfonate. The panel included 250 human cancer cell lines (OncoPanel™, Ricerca Biosciences, Painesville, Ohio) that were evaluated in a high content drug screening analysis. The relative IC50 values for the cell lines were determined.
Cells were grown in RPMI 1640, 10% FBS, 2 mM L-alanyl-L-Glutamine, 1 mM Na Pyruvate, or a special medium in a humidified atmosphere of 5% CO2 at 37° C. Cells were seeded into 384-well plates and incubated in a humidified atmosphere of 5% CO2 at 37° C. Test compounds were added 24 hours post cell seeding. […]
Compounds were serially diluted 3.16-fold and assayed over 10 concentrations of inhibitor in a final assay concentration of 0.1% DMSO from the highest test concentration specified in the sample information chapter. Automated fluorescence microscopy was carried out using a GE Healthcare InCell Analyzer 1000, and images were collected with a 4×objective. Twelve bit tiff images were acquired using the InCell Analyzer 1000 3.2 and analyzed with Developer Toolbox 1.6 software.
Cell proliferation was measured by the signal intensity of the incorporated nuclear dye. […]

## CC[C@@H]1CNC2(CC2)CN1C(=O)[C@@H]1C[C@@H](F)CN1C(=O)C1=C(C(C)C)N2C(=N[C@@](C)(c3ccc(Cl)nc3)[C@H]2c2ccc(Cl)c(F)c2)S1 [Compound A, [(5R,6S)-5-(4-Chloro-3-fluorophenyl)-6-(6-chloropyridin-3-yl)-6-methyl-3-(propan-2-yl)-5,6-dihydroimidazo[2,1-b][1,3]thiazol-2-yl][(2S,4R)-2-{[(6R)-6-ethyl-4,7-diazaspiro[2.5]oct-7-yl]carbonyl}-4-fluoropyrrolidin-1-yl]methanone]
  share of the cell lines with IC50 values of <1 μM: Approximately 25%
  share of the cell lines with IC50 values of >10: approximately 70%
